# Test results as given in US12178879B2, “Hemiasterlin derivative and antibody-drug conjugate thereof” (priority 2019, dated 2024).
# Key:
# Karpas-299 cells [1] = assay: Cellular toxicity test (1), CellTiter-Glo; format: cell-based, human; details: 16 μg/mL solution added 50 μL per well, 4 days, relative to addition of no compound
# Protocol: Karpas-299 cells were prepared to be 2×10^6 cells/mL in culture medium A, and were added to a 96 well microplate for cell culturing in an amount of 50 μL for each well. […] After culturing, the microplate was taken out from the incubator, and was left at rest at room temperature for 10 minutes. To each well, 50 μL of CellTiter-Glo Luminescent Cell Viability Assay (Promega) was added, and the resultant mixture was stirred.
# Karpas-299 cells [2] = assay: Cellular toxicity test (2), CellTiter-Glo; format: cell-based, human; details: for Cell remaining rate (%): 0.25 μM solution added 50 μL per well, 4 days, relative to addition of no compound; for cellular toxicity (in words): summary of Test Example 2
# Protocol: Karpas-299 cells (European Collection of Authenticated Cell Cultures, hereinafter, ECACC), which are CD30 antigen-expressing cell lines and human lymphoma cell lines, were cultured in RPMI 1640 (GIBCO) containing 10% fetal bovine serum (MP Biomedicals) (hereinafter, referred to as “culture medium A” in this test). Karpas-299 cells were prepared to be 2×10^6 cells/mL in culture medium A, and were added to a 96 well microplate for cell culturing in an amount of 50 μL for each well. Each compounds prepared to be in a concentration of 0.25 μM with culture medium A was added to the microplate in an amount of 50 μL for each well, and culture was carried out at 37° C. under 5% CO2 for 4 days. After culturing, the microplate was taken out from the incubator, and was left at rest at room temperature for 10 minutes. To each well, 50 μL of CellTiter-Glo Luminescent Cell Viability Assay (Promega) was added, and the resultant mixture was stirred. This mixture was incubated at a dark place for 20 minutes, and luminescence was measured by using a microplate luminometer, thereby determining the percentage of the number of cells remaining after treatment with each compound to the number of cells remaining after treatment with addition of no compound.
# porcine tubulin = target: T1, porcine tubulin (Sus scrofa, UniProt P02550+P02554); assay: Activity for inhibiting microtubule polymerization using porcine tubulins; format: biochemical; details: for Microtubule polymerization rate (%): at 9.1 μM, 60 minutes after assay initiation, absorbance at 340 nm, 37° C.; for activity for inhibiting microtubule polymerization (in words): summary of Test Example 3
# T1 construct: purchased Cytoskeleton Inc. BK006P
# T1 sequence (P02550 whole entry): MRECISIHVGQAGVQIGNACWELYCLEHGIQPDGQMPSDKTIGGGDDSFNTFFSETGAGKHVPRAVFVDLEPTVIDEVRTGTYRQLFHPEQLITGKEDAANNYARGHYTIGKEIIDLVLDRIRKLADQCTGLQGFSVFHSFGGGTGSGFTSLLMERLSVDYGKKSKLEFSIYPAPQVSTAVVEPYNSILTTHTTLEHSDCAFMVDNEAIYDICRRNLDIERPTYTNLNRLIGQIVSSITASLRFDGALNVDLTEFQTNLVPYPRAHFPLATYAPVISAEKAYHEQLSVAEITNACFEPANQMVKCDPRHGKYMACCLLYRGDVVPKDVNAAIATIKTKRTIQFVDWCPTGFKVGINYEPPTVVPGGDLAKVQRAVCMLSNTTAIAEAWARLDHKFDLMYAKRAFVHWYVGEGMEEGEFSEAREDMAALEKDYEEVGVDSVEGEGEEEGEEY
# T1 sequence (P02554 whole entry): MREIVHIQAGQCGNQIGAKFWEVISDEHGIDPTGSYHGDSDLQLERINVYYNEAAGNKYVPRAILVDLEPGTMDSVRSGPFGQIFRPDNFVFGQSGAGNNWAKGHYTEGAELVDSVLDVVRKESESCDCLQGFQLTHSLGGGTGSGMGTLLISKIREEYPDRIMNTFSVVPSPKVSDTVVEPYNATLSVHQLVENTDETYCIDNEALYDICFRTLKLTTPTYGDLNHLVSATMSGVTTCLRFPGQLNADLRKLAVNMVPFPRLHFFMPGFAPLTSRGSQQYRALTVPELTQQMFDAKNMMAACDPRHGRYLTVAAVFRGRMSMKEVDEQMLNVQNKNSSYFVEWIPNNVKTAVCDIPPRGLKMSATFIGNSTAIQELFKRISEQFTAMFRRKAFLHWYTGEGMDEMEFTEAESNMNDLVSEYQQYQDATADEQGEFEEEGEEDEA
# Protocol: Using a tubulin polymerization inhibition assay kit (catalog number: BK006P) purchased from Cytoskeleton Inc., the polymerization inhibitory activity of compounds of Examples was evaluated in accordance with the protocol appended to the kit. To a 96 well microplate, 80 mM PIPES pH 6.9, 2 mM MgCl, 0.5 mM EGTA and 5% DMSO buffered solution of the compound to be evaluated was added in an amount of 10 μL for each well, and to these wells, 3 mg/mL porcine tubulin 80 mM PIPES pH 6.9, 2 mM MgCl, 0.5 mM EGTA, 1 mM GTP and 10.2% glycerol solution was added in an amount of 100 μL for each well. In order to examine a state in which tubulins polymerize over time, the absorbance at 340 nm was measured at 37° C., using a microplate reader. As the polymerization of tubulins progresses, the absorbance at 340 nm rises.
# The tubulin polymerization inhibitory activity was evaluated based on the proportion of polymerized tubulins 60 minutes after the assay initiation. Specifically, the microtubule polymerization rate (%) was calculated by dividing the absorbance of tubulins that had polymerized at wells to which the compound had been added by the absorbance of tubulins that had polymerized at wells to which the compound had not been added, and multiplying the obtained value by 100.
Compound,Cell remaining rate (%) (Karpas-299 cells [1]),Cell remaining rate (%) (Karpas-299 cells [2]),cellular toxicity (in words) (Karpas-299 cells [2]),Microtubule polymerization rate (%) (porcine tubulin),activity for inhibiting microtubule polymerization (in words) (porcine tubulin)
Brentuximab,71.5%,–,–,–,–
"CN[C@H](C(=O)N[C@H](C(=O)N(C)[C@H](/C=C(\C)C(=O)NCCCCNC(=O)CCCCCN1C(=O)CC(SC[C@H](N)C(=O)O)C1=O)C(C)C)C(C)(C)C)C(C)(C)c1cn(C)c2ccccc12 (stereo partly drawn) [Comparative Example compound, reference compound]",–,18.1%,strong cellular toxicity,0%,comparable activities for inhibiting microtubule polymerization
CN[C@H](C(=O)N[C@H](C(=O)N(C)[C@H](/C=C(\C)C(=O)N[C@H](CCC(=O)NCCCC[C@H](N)C(=O)O)C(=O)O)C(C)C)C(C)(C)C)C(C)(C)c1ccccc1 [Metabolite of Example ADC1],–,100%,weak cytotoxic activity,1.7%,comparable activities for inhibiting microtubule polymerization
